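Assay format: 96-well plates, 48-hour exposure. At the GI50, growth is halved. TGI is the concentration that stops growth completely.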
Columns and labels:
Assay in all cases: DTP human tumour cell line panel, 48 h
[1] = test system: 786-0 renal
[2] = test system: A498 renal
[3] = test system: A549 NSCLC
[4] = test system: ACHN renal
[5] = test system: BT-549 breast
[6] = test system: CAKI-1 renal
[7] = test system: CCRF-CEM leukemia
[8] = test system: COLO 205 colon
[9] = test system: DU-145 prostate
[10] = test system: HCC-2998 colon
[11] = test system: HCT-116 colon
[12] = test system: HCT-15 colon
[13] = test system: HL-60(TB) leukemia
[14] = test system: HOP-62 NSCLC
[15] = test system: HOP-92 NSCLC
[16] = test system: HS 578T breast
[17] = test system: HT29 colon
[18] = test system: IGROV1 ovarian
[19] = test system: K-562 leukemia
[20] = test system: KM12 colon
[21] = test system: LOX IMVI melanoma
[22] = test system: M14 melanoma
[23] = test system: MALME-3M melanoma
[24] = test system: MCF7 breast
[25] = test system: MDA-MB-231 breast
[26] = test system: MDA-MB-435
[27] = test system: MOLT-4 leukemia
[28] = test system: NCI-H226 lung
[29] = test system: NCI-H23 lung
[30] = test system: NCI-H460 lung
[31] = test system: NCI-H522 lung
[32] = test system: NCI/ADR-RES ovarian
[33] = test system: OVCAR-3 ovarian
[34] = test system: OVCAR-4 ovarian
[35] = test system: OVCAR-5 ovarian
[36] = test system: OVCAR-8 ovarian
[37] = test system: PC-3 prostate
[38] = test system: RPMI-8226 leukemia
[39] = test system: RXF 393 renal
[40] = test system: SF-268 CNS
[41] = test system: SF-295 CNS
[42] = test system: SF-539 CNS
[43] = test system: SK-MEL-2 melanoma
[44] = test system: SK-MEL-28 melanoma
[45] = test system: SK-MEL-5 melanoma
[46] = test system: SK-OV-3 ovarian
[47] = test system: SN12C renal
[48] = test system: SNB-19 CNS
[49] = test system: SNB-75 CNS
[50] = test system: SR leukemia
[51] = test system: SW-620 colon
[52] = test system: T-47D breast
[53] = test system: U251 CNS
[54] = test system: UACC-257 melanoma
[55] = test system: UACC-62 melanoma
[56] = test system: UO-31 renal

With O=C(CI)OCC(COC(=O)CI)OC(=O)CI the GI50 [1] was 2.38 µM, the TGI [1] was 6.28 µM and the GI50 [2] was 10.9 µM. For the same molecule, the TGI [2] was 26.7 µM, the GI50 [3] was 16.8 µM and the TGI [3] was 35.5 µM. The GI50 [4] was 1.84 µM, the TGI [4] was 3.37 µM and the GI50 [5] was 4.56 µM. The TGI [5] was 15.7 µM, the GI50 [6] was 1.96 µM and the TGI [6] was 3.91 µM. For the same molecule, the GI50 [7] was 1.73 µM, the TGI [7] was 3.95 µM and the GI50 [8] was 1.88 µM. The TGI [8] was 3.52 µM, the GI50 [9] was 8.62 µM and the TGI [9] was 22.3 µM. For the same molecule, the GI50 [10] was 16.3 µM, the TGI [10] was 31.3 µM and the GI50 [11] was 1.67 µM. For the same molecule, the TGI [11] was 3.41 µM, the GI50 [12] was 1.73 µM and the TGI [12] was 3.61 µM. It also gave a GI50 [13] of 1.99 µM, a TGI [13] of 4.19 µM and a GI50 [14] of 10.8 µM. For the same molecule, the TGI [14] was 27.8 µM, the GI50 [15] was 1.86 µM and the TGI [15] was 4.03 µM. It also gave a GI50 [16] of 4.88 µM, a TGI [16] of 27.7 µM and a GI50 [17] of 2.92 µM. It also gave a TGI [17] of 8.91 µM, a GI50 [18] of 1.75 µM and a TGI [18] of 3.5 µM. For the same molecule, the GI50 [19] was 2.39 µM, the TGI [19] was 5.73 µM and the GI50 [20] was 11.7 µM. It also gave a TGI [20] of 26.8 µM, a GI50 [21] of 1.03 µM and a TGI [21] of 3 µM. For the same molecule, the GI50 [22] was 7.57 µM, the TGI [22] was 22 µM and the GI50 [23] was 1.6 µM. It also gave a TGI [23] of 3.29 µM, a GI50 [24] of 3.38 µM and a TGI [24] of 14.8 µM. It also gave a GI50 [25] of 9.3 µM, a TGI [25] of 24.6 µM and a GI50 [26] of 10.6 µM. For the same molecule, the TGI [26] was 23.5 µM, the GI50 [27] was 2.06 µM and the TGI [27] was 4.57 µM. For the same molecule, the GI50 [28] was 15.6 µM, the TGI [28] was 38.8 µM and the GI50 [29] was 5.36 µM. The TGI [29] was 19.6 µM, the GI50 [30] was 18 µM and the TGI [30] was 36.9 µM. For the same molecule, the GI50 [31] was 0.506 µM, the TGI [31] was 1.27 µM and the GI50 [32] was 18.4 µM. For the same molecule, the TGI [32] was 45.3 µM, the GI50 [33] was 2.07 µM and the TGI [33] was 3.94 µM. The GI50 [34] was 1.8 µM, the TGI [34] was 4.3 µM and the GI50 [35] was 16.4 µM. It also gave a TGI [35] of 32.8 µM, a GI50 [36] of 2.53 µM and a TGI [36] of 6.92 µM. The GI50 [37] was 6.46 µM, the TGI [37] was 20.7 µM and the GI50 [38] was 2.22 µM. For the same molecule, the TGI [38] was 4.96 µM, the GI50 [39] was 2.4 µM and the TGI [39] was 7.55 µM. For the same molecule, the GI50 [40] was 13.2 µM, the TGI [40] was 29.5 µM and the GI50 [41] was 16.3 µM. The TGI [41] was 32 µM, the GI50 [42] was 13.7 µM and the TGI [42] was 27.2 µM. It also gave a GI50 [43] of 10.3 µM, a TGI [43] of 25.5 µM and a GI50 [44] of 5.54 µM. It also gave a TGI [44] of 16 µM, a GI50 [45] of 13.8 µM and a TGI [45] of 27.6 µM. The GI50 [46] was 17.3 µM, the TGI [46] was 31.1 µM and the GI50 [47] was 4.01 µM. It also gave a TGI [47] of 15 µM, a GI50 [48] of 16.5 µM and a TGI [48] of 32.7 µM. For the same molecule, the GI50 [49] was 13.7 µM, the TGI [49] was 29.3 µM and the GI50 [50] was 2.36 µM. The TGI [50] was 7.58 µM, the GI50 [51] was 1.92 µM and the TGI [51] was 4 µM. For the same molecule, the GI50 [52] was 1.98 µM, the TGI [52] was 4.46 µM and the GI50 [53] was 11.9 µM. For the same molecule, the TGI [53] was 25.2 µM, the GI50 [54] was 4.06 µM and the TGI [54] was 15.4 µM. For the same molecule, the GI50 [55] was 3.05 µM, the TGI [55] was 12.3 µM and the GI50 [56] was 1.39 µM. For the same molecule, the TGI [56] was 2.84 µM.

Source: PubChem BioAssay (NCI)
